Measurements as given in patent EP0645397B1, “Glutathione analogs and paralog panels comprising glutathione mimics” (TERRAPIN TECHNOLOGIES, INC., priority 1993, dated 1998).

Experiments:
[1] = system: rat cytosolic GST isoenzymes; assay: Isoenzyme composition of sorbent eluates by SDS/PAGE and reverse-phase HPLC; assay type: binding
Description: Fractions eluted from the sorbents listed in Table 3 were analyzed by SDS/PAGE followed by silver staining. S-L-GSH and HxGSH sorbents bound proteins which corresponded to the previously observed electrophoretic band pattern of rat liver GST subunits. […] As the π-class GST 7-7 is found at low levels in rat liver cytosol, other rat tissues known to express higher levels of this isoenzyme also were tested.
Independent confirmation of this conclusion, at higher resolution, was provided by reverse-phase HPLC analyses of the GST isoenzymes in the eluates from different sorbents. […] Subunits 3, 4 and 6 are µ-class isoenzymes, subunits 1a, 1b, 2 and 8 are α-class isoenzymes, and subunit 7 is the π-class isoenzyme.

[2] = system: rat liver cytosolic GST isoenzymes; assay: Affinity chromatography of rat liver cytosol on GSH and GSH analog sorbents; recovery of protein and CDNB-conjugating activity in elution fractions; assay type: binding
Description: 0.66 g epoxy Sepharose™ 6B (Pharmacia) was swollen with 10 mL water for 15 min, then rinsed twice with 10 mL water in a 15 mL sintered glass funnel. A solution of 100-500 mg of the crude tripeptide in 5 mL ethanol and 10 mL water was adjusted to pH 11-12 with 6 N NaOH in a 20 mL scintillation vial with a polycone cap. The rinsed resin was added, and gently agitated overnight in a 37° water bath. The pH was checked the next day and brought back to pH 11-12 with 6 N NaOH if needed. After another day of agitation, the resin was filtered (the peptide-containing liquid was acidified with conc HCl, evaporated and saved) and rinsed three times with 10 mL water. The unfunctionalized epoxy groups were capped by soaking the resin in 10 mL of water which contained about 0.1 mL ethanolamine for 1 hr. The resin was then rinsed three times with 10 mL water, and a sample was removed for analysis. The remainder was rinsed with 10 mL of 0.1 M NaOAc, 0.5 M NaCl pH 4.0 buffer, followed by 10 mL of 0.1 M tris chloride, 0.5 M NaCl pH 8.0 buffer. The resin was stored at 4°C in this pH 8 buffer.
The recoveries of protein and GST (CDNB-conjugating) activity in the elution fractions after affinity purification of rat liver cytosolic GST isoenzymes on various compounds of the invention are shown in Table 3.

glyoxalase I = assay: SDS/PAGE detection of glyoxalase I-like protein in sorbent eluates; assay type: binding, rat; conditions: EDTA in buffers
Text: A protein with a molecular migration similar to that of another GSH-dependent enzyme, glyoxalase I, was also present in the eluates from γE-C(Bz)-A and γE-C(Bz)-βA, but was not detected in eluates from the other sorbents. […] Glyoxalase I is known to be a metal-dependent enzyme, and the presence of EDTA in the buffers may have interfered with binding activity.

N[C@@H](CCC(=O)N[C@@H](CSCc1ccccc1)C(=O)NCCC(=O)O)C(=O)O [γE-C(Bz)-βA, γ-glutamyl S-benzyl cysteinyl β-alanine]
SDS/PAGE band pattern of eluate ([1]; rat liver cytosol, silver staining): highly enriched band for presumptive µ-class isoenzymes
isoenzymes bound ([1]; reverse-phase HPLC of eluates): selectively bound the µ-class isoenzymes 3 and 4
Protein recovery ([2]; Table 4, rat cytosolic GST isoenzymes): 1.0%
protein recovery seen with HxGSH ([2]; relative to HxGSH sorbent): 33%
CDNB-conjugating activities ([2]; relative to HxGSH sorbent, after correcting for the inhibitory properties of the eluting ligand): 52%
protein with a molecular migration similar to glyoxalase I in eluate (glyoxalase I): present
